Measured values as given in patent US10870638B2, “Pyridazinone compound or its salt, and herbicide containing it” (ISHIHARA SANGYO KAISHA, LTD., priority 2016, dated 2020).

Assays:
Format in all cases: in vivo
Details in all cases: active ingredient amount 31 g/ha, 14th day after application
[1] = system: barnyardgrass (Echinochloa crus-qalli L.); assay: Test Example 1: foliar treatment, growth inhibition rate on 14th day
Outline: (§1)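 Visual 0–100% inhibition scoring (100 = complete kill) at 14 days after foliar treatment of soil-grown seedlings at species-specific leaf stages, with the compound sprayed as a wettable powder or emulsifiable concentrate dilution.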

corn (Zea mays L.) [2] = assay: as above
Outline: as §1

[3] = system: crabgrass (Digitaria sanquinalis L.); assay: as above
Outline: as §1

[4] = system: green foxtail (Setaria viridis L.); assay: as above
Outline: (§2)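 Plants in upland soil were sprayed on the foliage at early leaf stages (wild oat 0.4–1.2, rice 0.2–2.7, green foxtail 0.5–3.2, soybean primary leaf) with wettable powder or emulsifiable concentrate formulations. Spray volume was 1,000 L/ha water containing 0.1 vol% spreader, at prescribed active-ingredient rates. Growth inhibition (0 = untreated, 100 = complete kill) was scored visually on day 14.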

[5] = system: italian ryegrass (Lolium multiflorum Lam.); assay: as above
Outline: as §1

[6] = system: redroot pigweed (Amaranthus retroflexus L.); assay: as above
Outline: as §1

rice (Oryza sativa L.) [7] = assay: as above
Outline: as §2

[8] = system: soybean (Glycine max Merr.); assay: as above
Outline: as §2

[9] = system: wheat (Triticum aestivum L.); assay: as above
Outline: as §1

[10] = system: wild oat (Avena fatua L.); assay: as above
Outline: as §2

[11] = system: barnyardgrass (Echinochloa crus-qalli L.); assay: Test Example 2: soil application on the day after sowing, growth inhibition rate on 14th day
Source text: (§3) Upland field soil was put into a 1/300,000 hectare pot, and seeds of various plants (barnyardgrass (Echinochloa crus-qalli L.), crabgrass (Digitaris sanquinalis L.), green foxtail (Setaria viridis L.), redroot pigweed (Amaranthus retroflexus L.), prickly sida (Sida spinosa L.), velvetleaf (Abutilon theophrasti MEDIC.), rice (Oryza sativa L.), corn (Zea mays L.), wheat (Triticum aestivum L.), soybean (Glycine max Merr.)) were sown. On the day after sowing, wettable powders or emulsifiable concentrates of the compounds of the present invention prepared in accordance with a conventional preparation method, were weighed so as to achieve the prescribed active ingredient amounts, and diluted with water in an amount corresponding to 1,000 liters per 1 hectare, followed by soil application by a small sprayer.
(§4) On the 14th day after the application, the state of growth of the respective plants was visually observed, and the herbicidal effect was evaluated by a growth inhibition rate (%) of 0 (equivalent to the non-treated area) to 100 (complete kill).

corn (Zea mays L.) [12] = assay: as above
Source text: as §3, §4

[13] = system: crabgrass (Digitaris sanquinalis L.); assay: as above
Source text: as §3, §4

[14] = system: green foxtail (Setaria viridis L.); assay: as above
Source text: as §3, §4

[15] = system: prickly sida (Sida spinosa L.); assay: as above
Source text: as §3, §4

rice (Oryza sativa L.) [16] = assay: as above
Source text: as §3, §4

[17] = system: soybean (Glycine max Merr.); assay: as above
Source text: as §3, §4

[18] = system: velvetleaf (Abutilon theophrasti MEDIC.); assay: as above
Source text: as §3, §4

[19] = system: wheat (Triticum aestivum L.); assay: as above
Source text: as §3, §4

[20] = system: redroot pigweed (Amaranthus retroflexus L.); assay: as above
Source text: as §3, §4

[21] = visual, 0 = non-treated, 100 = complete kill

Cc1ccc(Sc2ncc(C(F)(F)F)cc2Cl)cc1-c1c(O)c(C)nn(C)c1=O [1-2, 4-(5-((3-chloro-5-(trifluoromethyl)pyridin-2-yl)thio)-2-methylphenyl)-5-hydroxy-2,6-dimethylpyridazin-3(2H)-one]
Growth inhibition rate (%) Barnyardgrass [1]: 100% | Growth inhibition rate (%) Corn (corn (Zea mays L.) [2]): 95% | Growth inhibition rate (%) Crabgrass [3]: 99% | Growth inhibition rate (%) Green foxtail [4]: 99% | Growth inhibition rate (%) Italian ryegrass [5]: 99% | Growth inhibition rate (%) Redroot pigweed [6]: 0% | Growth inhibition rate (%) Rice (rice (Oryza sativa L.) [7]): 10% | Growth inhibition rate (%) Soybean [8]: 0% | Growth inhibition rate (%) Wheat [9]: 20% | Growth inhibition rate (%) Wild oat [10]: 95% | inhibition at 31 g/ha ([11]; Echinochloa): 98% | inhibition at 31 g/ha (corn (Zea mays L.) [12]; Zea mays): 20% | inhibition at 31 g/ha ([13]; Digitaria sanguinalis): 98% | inhibition at 31 g/ha ([14]; Setaria viridis): 99% | inhibition at 31 g/ha ([15]; Sida spinosa): 30% | inhibition at 31 g/ha (rice (Oryza sativa L.) [16]; Oryza sativa): 20% | inhibition at 31 g/ha ([17]; Glycine max): 0% | inhibition at 31 g/ha ([18]; Abutilon theophrasti): 0% | inhibition at 31 g/ha ([19]; Triticum aestivum): 10%

Cc1ccc(Oc2cnc3cc(Cl)ccc3n2)cc1-c1c(O)c(C)nn(C)c1=O [Compound 2-7]
Growth inhibition rate (%) Barnyardgrass [1]: 100% | Growth inhibition rate (%) Corn (corn (Zea mays L.) [2]): 10% | Growth inhibition rate (%) Green foxtail [4]: 100% | Growth inhibition rate (%) Italian ryegrass [5]: 100% | Growth inhibition rate (%) Redroot pigweed [6]: 50% | Growth inhibition rate (%) Rice (rice (Oryza sativa L.) [7]): 100% | Growth inhibition rate (%) Soybean [8]: 0% | Growth inhibition rate (%) Wheat [9]: 98% | Growth inhibition rate (%) Wild oat [10]: 98% | Growth inhibition rate (%) Barnyardgrass [11]: 99% | Growth inhibition rate (%) Corn (corn (Zea mays L.) [12]): 20% | Growth inhibition rate (%) Crabgrass [13]: 99% | Growth inhibition rate (%) Green foxtail [14]: 100% | Growth inhibition rate (%) Prickly sida [15]: 0% | Growth inhibition rate (%) Redroot pigweed [20]: 0% | Growth inhibition rate (%) Rice (rice (Oryza sativa L.) [16]): 40% | Growth inhibition rate (%) Soybean [17]: 0% | Growth inhibition rate (%) Velvetleaf [18]: 0% | Growth inhibition rate (%) Wheat [19]: 25%

CCc1ccc(Oc2nc3cc(Cl)ccc3o2)cc1-c1c(O)c(C)nn(C)c1=O [Compound 2-162]
Growth inhibition rate (%) Barnyardgrass [1]: 100% | Growth inhibition rate (%) Corn (corn (Zea mays L.) [2]): 90% | Growth inhibition rate (%) Crabgrass [3]: 100% | Growth inhibition rate (%) Green foxtail [4]: 99% | Growth inhibition rate (%) Italian ryegrass [5]: 100% | Growth inhibition rate (%) Redroot pigweed [6]: 10% | Growth inhibition rate (%) Rice (rice (Oryza sativa L.) [7]): 100% | Growth inhibition rate (%) Soybean [8]: 0% | Growth inhibition rate (%) Wheat [9]: 99% | Growth inhibition rate (%) Wild oat [10]: 100% | Growth inhibition rate (%) Barnyardgrass [11]: 90% | Growth inhibition rate (%) Corn (corn (Zea mays L.) [12]): 0% | Growth inhibition rate (%) Crabgrass [13]: 20% | Growth inhibition rate (%) Green foxtail [14]: 20% | Growth inhibition rate (%) Rice (rice (Oryza sativa L.) [16]): 0% | Growth inhibition rate (%) Soybean [17]: 0% | Growth inhibition rate (%) Velvetleaf [18]: 0% | Growth inhibition rate (%) Wheat [19]: 20%

CCn1ncc(O)c(-c2cc(Oc3nc4ccc(Cl)cc4o3)ccc2C)c1=O [Compound 2-167]
Growth inhibition rate (%) Barnyardgrass [1]: 100% | Growth inhibition rate (%) Corn (corn (Zea mays L.) [2]): 90% | Growth inhibition rate (%) Crabgrass [3]: 99% | Growth inhibition rate (%) Green foxtail [4]: 100% | Growth inhibition rate (%) Italian ryegrass [5]: 80% | Growth inhibition rate (%) Redroot pigweed [6]: 0% | Growth inhibition rate (%) Rice (rice (Oryza sativa L.) [7]): 60% | Growth inhibition rate (%) Soybean [8]: 30% | Growth inhibition rate (%) Wheat [9]: 25% | Growth inhibition rate (%) Wild oat [10]: 45% | Growth inhibition rate (%) Barnyardgrass [11]: 40% | Growth inhibition rate (%) Corn (corn (Zea mays L.) [12]): 0% | Growth inhibition rate (%) Crabgrass [13]: 99% | Growth inhibition rate (%) Green foxtail [14]: 100% | Growth inhibition rate (%) Prickly sida [15]: 0% | Growth inhibition rate (%) Rice (rice (Oryza sativa L.) [16]): 0% | Growth inhibition rate (%) Soybean [17]: 0% | Growth inhibition rate (%) Velvetleaf [18]: 0% | Growth inhibition rate (%) Wheat [19]: 0%

CC(=O)Oc1cnn(C)c(=O)c1-c1cc(Oc2nc3cc(Cl)ccc3o2)ccc1C [Compound 2-174]
Growth inhibition rate (%) Barnyardgrass [1]: 100% | Growth inhibition rate (%) Corn (corn (Zea mays L.) [2]): 95% | Growth inhibition rate (%) Crabgrass [3]: 93% | Growth inhibition rate (%) Green foxtail [4]: 93% | Growth inhibition rate (%) Italian ryegrass [5]: 95% | Growth inhibition rate (%) Rice (rice (Oryza sativa L.) [7]): 93% | Growth inhibition rate (%) Soybean [8]: 0% | Growth inhibition rate (%) Wheat [9]: 93% | Growth inhibition rate (%) Wild oat [10]: 88% | Growth inhibition rate (%) Barnyardgrass [11]: 20% | Growth inhibition rate (%) Corn (corn (Zea mays L.) [12]): 20% | Growth inhibition rate (%) Crabgrass [13]: 80% | Growth inhibition rate (%) Green foxtail [14]: 0% | Growth inhibition rate (%) Prickly sida [15]: 0% | Growth inhibition rate (%) Redroot pigweed [20]: 0% | Growth inhibition rate (%) Rice (rice (Oryza sativa L.) [16]): 0% | Growth inhibition rate (%) Soybean [17]: 0% | Growth inhibition rate (%) Velvetleaf [18]: 0% | Growth inhibition rate (%) Wheat [19]: 0%

Cc1ccc(Oc2cnc3cc(Cl)ccc3n2)cc1-c1c(O)c(C)nn(C)c1=O [Compound 3-1]
Growth inhibition rate (%) Barnyardgrass [1]: 100% | Growth inhibition rate (%) Corn (corn (Zea mays L.) [2]): 10% | Growth inhibition rate (%) Crabgrass [3]: 99% | Growth inhibition rate (%) Green foxtail [4]: 100% | Growth inhibition rate (%) Italian ryegrass [5]: 100% | Growth inhibition rate (%) Redroot pigweed [6]: 50% | Growth inhibition rate (%) Rice (rice (Oryza sativa L.) [7]): 100% | Growth inhibition rate (%) Soybean [8]: 0% | Growth inhibition rate (%) Wheat [9]: 98% | Growth inhibition rate (%) Wild oat [10]: 98% | Growth inhibition rate (%) Barnyardgrass [11]: 99% | Growth inhibition rate (%) Corn (corn (Zea mays L.) [12]): 20% | Growth inhibition rate (%) Prickly sida [15]: 0% | Growth inhibition rate (%) Redroot pigweed [20]: 0% | Growth inhibition rate (%) Rice (rice (Oryza sativa L.) [16]): 40% | Growth inhibition rate (%) Velvetleaf [18]: 0% | Growth inhibition rate (%) Wheat [19]: 25%

C#CCOc1c(C)nn(C)c(=O)c1-c1cc(Oc2cnc3cc(Cl)ccc3n2)ccc1C [Compound 3-77]
Growth inhibition rate (%) Barnyardgrass [1, 21]: 100% | Growth inhibition rate (%) Corn (corn (Zea mays L.) [2]; [21]): 30% | Growth inhibition rate (%) Crabgrass [3, 21]: 90% | Growth inhibition rate (%) Green foxtail [4, 21]: 100% | Growth inhibition rate (%) Italian ryegrass [5, 21]: 85% | Growth inhibition rate (%) Redroot pigweed [6, 21]: 0% | Growth inhibition rate (%) Rice (rice (Oryza sativa L.) [7]; [21]): 0% | Growth inhibition rate (%) Soybean [8, 21]: 0% | Growth inhibition rate (%) Wheat [9, 21]: 25% | Growth inhibition rate (%) Wild oat [10, 21]: 60%

Cc1ccc(Oc2cnc3cc(Cl)ccc3n2)cc1-c1c(OCC#N)c(C)nn(C)c1=O [Compound 3-78]
Growth inhibition rate (%) Barnyardgrass [1, 21]: 99% | Growth inhibition rate (%) Corn (corn (Zea mays L.) [2]; [21]): 0% | Growth inhibition rate (%) Crabgrass [3, 21]: 93% | Growth inhibition rate (%) Green foxtail [4, 21]: 98% | Growth inhibition rate (%) Italian ryegrass [5, 21]: 10% | Growth inhibition rate (%) Redroot pigweed [6, 21]: 0% | Growth inhibition rate (%) Rice (rice (Oryza sativa L.) [7]; [21]): 0% | Growth inhibition rate (%) Soybean [8, 21]: 0% | Growth inhibition rate (%) Wheat [9, 21]: 0% | Growth inhibition rate (%) Wild oat [10, 21]: 40%

Cc1ccc(Oc2cnc3cc(Cl)ccc3n2)cc1-c1c(OC(=O)CC2CCCCC2)c(C)nn(C)c1=O [Compound 3-80]
Growth inhibition rate (%) Barnyardgrass [1, 21]: 100% | Growth inhibition rate (%) Corn (corn (Zea mays L.) [2]; [21]): 25% | Growth inhibition rate (%) Crabgrass [3, 21]: 95% | Growth inhibition rate (%) Green foxtail [4, 21]: 99% | Growth inhibition rate (%) Italian ryegrass [5, 21]: 93% | Growth inhibition rate (%) Redroot pigweed [6, 21]: 0% | Growth inhibition rate (%) Rice (rice (Oryza sativa L.) [7]; [21]): 0% | Growth inhibition rate (%) Soybean [8, 21]: 25% | Growth inhibition rate (%) Wheat [9, 21]: 90% | Growth inhibition rate (%) Wild oat [10, 21]: 99%

Cc1ccc(Oc2cnc3cc(Cl)ccc3n2)cc1-c1c(OCOCCCl)c(C)nn(C)c1=O [Compound 3-81]
Growth inhibition rate (%) Barnyardgrass [1, 21]: 99% | Growth inhibition rate (%) Corn (corn (Zea mays L.) [2]; [21]): 0% | Growth inhibition rate (%) Crabgrass [3, 21]: 93% | Growth inhibition rate (%) Green foxtail [4, 21]: 99% | Growth inhibition rate (%) Italian ryegrass [5, 21]: 95% | Growth inhibition rate (%) Redroot pigweed [6, 21]: 0% | Growth inhibition rate (%) Rice (rice (Oryza sativa L.) [7]; [21]): 0% | Growth inhibition rate (%) Soybean [8, 21]: 0% | Growth inhibition rate (%) Wheat [9, 21]: 25% | Growth inhibition rate (%) Wild oat [10, 21]: 95%
